What all share (type): cell-based
Assay [1] has as its system Enterobacter cloacae ATCC 13047. The experiment in a line: Antibacterial activity, MIC, procedure B (agar dilution). The following applies: ATCC13047. The procedure: (§1) The compounds of the invention are tested for their antibacterial activity. The test can be carried out in two ways:
(§2) B. The organisms used in the test comprise the following: Staphylococcus aureus (penicillin-sensitive and resistant), Pseudomonas aeruginosa, Escherichia coli, […], Bordetella bronchiseptica, Proteus vulgaris, P. mirabilis, Acinetobacter calcoaceticus.
(§3) Test organisms may be added or deleted in order to reflect current clinical patterns of antibiotic susceptibility or shifts in pathogenic potential.
(§4) Organisms are normally grown for 18 hours in Brain Heart Infusion at 35° C. Cultures are adjusted with saline to MacFarland No. 1.5 standard prior to use.
(§5) Stock concentrations (e.g. 2,5000 μg or units per ml) are prepared in a suitable vehicle. Two-fold dilutions are made. One ml quantities of each dilution are incorporated in 9 ml of the appropriate agar (e.g. Seed) in sterile Petri plates. The hardened surface is inoculated with test organisms by use of a Steers replicating device. The plates are incubated (e.g. 18 hours at 35° C.) and activity is determined.
On the technique in general: Agar dilution tests growth on a series of plates holding different concentrations.

Assay [2] relates to Escherichia coli ATCC 25922. The description is as above. As to conditions: ATCC25922. Here is the method:
as §1, §2, §3, §4, §5

The test system of assay [3] is Klebsiella pneunomiae KL-1. Described as above. The following applies: KL1. Here is the method:
as §1, §2, §3, §4, §5

The test system of assay [4] is Proteus vulgaris A 84354 1. The assay is described as above. As to conditions: A843541. Here is the method:
as §1, §2, §3, §4, §5

Assay [5] concerns Pseudomonas aeruginosa ATCC 27853. The description is as above. As to conditions: ATCC27853. Here is the method: as §1, §2, §3, §4, §5
The subject of assay [6] is Serratia marcescens ATCC 13880. The description is as above. The following applies: ATCC13880. The procedure: as §1, §2, §3, §4, §5
Assay [7] deals with Staphylococcus aureus ATCC 29213. The description is as above. The following applies: ATCC29213. The procedure:
as §1, §2, §3, §4, §5

In assay [8] the test system is Streptococcus faecalis ATCC 29212. The assay is described as above. The following applies: Enterococcus faecalis, ATCC29212. The procedure: as §1, §2, §3, §4, §5
Assay [9] has as its system Enterobacter cloacae ATCC 13047. Briefly: Antibacterial activity, MIC, procedure A (broth dilution). The following applies: ATCC13047. Here is the method:
as §1
(§6) A. The organisms used in the test comprise the following: Staphylococcus aureus (penicillin-sensitive and resistant), Pseudomonas aeruginosa, Escherichia coli, […], Bordetella bronchiseptica, Proteus vulgaris, P. mirabilis, Acinetobacter calcoaceticus.
as §3
(§7) Stock solution of appropriate medium (e.g. Mueller-Hinton Broth) is sterilized. Starting at a predetermined concentration (e.g. 250 μg/ml), two-fold dilutions are made with the Dynatech Automatic Diluter in a Microtiter plate of 8 rows of 12 wells each in which 11 wells in each row contain 50 μl of medium (e.g. Mueller-Hinton Broth) and the 12th well contains in 100 μl an aliquot of the compound to be tested. The diluted plates are inoculated using the Dynatech Automatic Inoculator which delivers the final inoculum (e.g. 10^5 cfu/ml of a seven-hour culture which has been incubated at 35° C.).
(§8) Plates are sealed with tape and incubated (e.g. 18 hours at 35° C.).
(In general: In broth dilution the organism is exposed to a series of concentrations in liquid medium.)

Assay [10] has as its system Escherichia coli ATCC 25922. The assay is described as above. The following applies: ATCC25922. The procedure: as §1, §6, §3, §7, §8
Assay [11] deals with Klebsiella pneunomiae KL-1. The description is as above. The following applies: KL1. The procedure:
as §1, §6, §3, §7, §8

The test system of assay [12] is Proteus vulgaris A 84354 1. The assay is described as above. The following applies: A843541. The procedure:
as §1, §6, §3, §7, §8

Assay [13] deals with Pseudomonas aeruginosa ATCC 27853. Described as above. As to conditions: ATCC27853. The procedure:
as §1, §6, §3, §7, §8

Assay [14] relates to Serratia marcescens ATCC 13880. The description is as above. The following applies: ATCC13880. The procedure: as §1, §6, §3, §7, §8
The test system of assay [15] is Staphylococcus aureus ATCC 29213. The assay is described as above. As to conditions: ATCC29213. Here is the method:
as §1, §6, §3, §7, §8

The subject of assay [16] is Streptococcus faecalis ATCC 29212. Described as above. As to conditions: Enterococcus faecalis, ATCC29212. The procedure: as §1, §6, §3, §7, §8

Values after ≈ are worked out from the molar mass of the structure shown. Counter-ions that a name gives are not always drawn.

With `CO/N=C(\C(=O)N[C@@H]1C(=O)N2C(C(=O)O)=C(CN3C(=O)C(C#N)=CNS3(=O)=O)CS[C@H]12)c1csc(N)n1` [Example 1 C, (6R,7R)-7-[[(Z)-(2-Amino-4-thiazolyl)(methoxyimino)acetyl]amino]-3-[(4-cyano-3,6-dihydro-3-oxo-2H-1,2,6-thiadiazin-2-yl)methyl]-8-oxo-5-thia-1-azabicyclo[4.2.0]oct-2-ene-2-carboxylic acid, S^3, S^3-dioxide, trifluoroacetate salt], the MIC in [1] came out at 32 µg/mL; in assay [2], 1 µg/mL; in [3] it was 0.125 µg/mL; in [4] it was 1 µg/mL; in assay [5] it was 256 µg/mL; in assay [6], 8 µg/mL. For the same compound, the MIC turned out to be 32 µg/mL in [7] and 128 µg/mL in [8].
Consider `CO/N=C(\C(=O)N[C@@H]1C(=O)N2C(C(=O)OC(C)(C)C)=C(CN3C(=O)c4ccccc4NS3(=O)=O)CS[C@H]12)c1csc(N)n1` [Example 2 B, (6R,7R)-7-[[(Z)-(2-Amino-4-thiazolyl)(methoxyimino)acetyl]amino]-3-[(1,4-dihydro-4-oxo-3H-2,1,3-benzothiadiazin-3-yl)methyl]-8-oxo-5-thia-1-azabicyclo[4.2.0]oct-2-ene-2-carboxylic acid 1,1-dimethylethyl ester, S^3, S^3-dioxide], for which the minimum inhibitory concentration (MIC) in assay [9] worked out at 64 µg/mL (≈ 98.5 µM); in [10], 8 µg/mL (≈ 12.3 µM); in assay [11], 4 µg/mL (≈ 6.16 µM); in assay [12], 1 µg/mL (≈ 1.54 µM); in assay [13] it was 128 µg/mL (≈ 197 µM); in assay [14], 64 µg/mL (≈ 98.5 µM). Moreover, the figures for the MIC in assay [15] and in assay [16] were 64 µg/mL (≈ 98.5 µM) and 128 µg/mL (≈ 197 µM), respectively.
`CO/N=C(\C(=O)N[C@@H]1C(=O)N2C(C(=O)O)=C(CN3C(=O)c4ccccc4NS3(=O)=O)CS[C@H]12)c1csc(N)n1` [Example 2 C, (6R,7R)-7-[[(Z)-(2-Amino-4-thiazolyl)(methoxyimino)acetyl]amino]-3-[(1,4-dihydro-4-oxo-3H-2,1,3-benzothiadiazin-3-yl)methyl]-8-oxo-5-thia-1-azabicyclo[4.2.0]oct-2-ene-2-carboxylic acid S^3, S^3-dioxide, trifluoroacetate salt]: the MIC was found to be 64 µg/mL in assay [9]; 4 µg/mL in assay [10]; 2 µg/mL in assay [11]; 0.25 µg/mL in [12]; 128 µg/mL in assay [13]; 16 µg/mL in assay [14]. Further, the MIC in [15] turned out to be 32 µg/mL; in assay [16], 128 µg/mL.
Turning to `CO/N=C(\C(=O)N[C@@H]1C(=O)N2C(C(=O)OC(C)(C)C)=C(CN3C(=O)C(C#N)=CNS3(=O)=O)CS[C@H]12)c1csc(N)n1` [Example 1 B, (6R,7R)-7-[[(Z)-(2-Amino-4-thiazolyl)(methoxyimino)acetyl]amino]-3-[(4-cyano-3,6-dihydro-3-oxo-2H-1,2,6-thiadiazin-2-yl)methyl]-8-oxo-5-thia-1-azabicyclo[4.2.0]oct-2-ene-2-carboxylic acid 1,1-dimethylethyl ester S^3, S^3-dioxide], the MIC in assay [1] amounted to 64 µg/mL (≈ 102 µM); in assay [2] it was 2 µg/mL (≈ 3.2 µM); in assay [3], 1 µg/mL (≈ 1.6 µM); in assay [4] it was 0.25 µg/mL (≈ 0.4 µM); in assay [5], 256 µg/mL (≈ 410 µM); in [6], 32 µg/mL (≈ 51.2 µM). Also, the MIC in [7] was 64 µg/mL (≈ 102 µM); in assay [8], 256 µg/mL (≈ 410 µM).

For orientation: MIC means the smallest concentration in the dilution series that meets the test's criterion for growth inhibition.

Values taken from patent US4728733A, “C-3' thiadiazinyl cephalosporin analogs” (American Home Products Corporation, priority 1985, dated 1988).
